Data: the supplement of paper PMC10307832

How the values were obtained:
Test in all cases: relative viability (nuclei count vs DMSO), 5 days (fraction); higher = more cells survive
[1] = compound: C1=CC=C2C(=C1)N=C(S2)C(C#N)C3=NC(=NC=C3)NCCC4=CN=CC=C4 + CCNC(=O)c1noc(-c2cc(C(C)C)c(O)cc2O)c1-c1ccc(CN2CCOCC2)cc1 [Luminespib] (partner 0.01 µM)
Method in brief: (§1)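 Relative viability equals treated-well nuclei counts divided by vehicle-well nuclei counts. Counts came from 4× images of lung cancer cell lines grown in 1536-well plates for 5 days after pin-tool dosing on the day after seeding. Dosing used one drug alone or a fixed anchor-drug dose plus five library-drug doses (not always all listed) in √10 steps, and values are medians of duplicate plates.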

[2] = compound: C1=CC=C2C(=C1)N=C(S2)C(C#N)C3=NC(=NC=C3)NCCC4=CN=CC=C4 + C[C@]1(O)C[C@@H](c2nc(-c3ccc4ccc(-c5ccccc5)nc4c3)c3c(N)nccn32)C1 [Linsitinib] (partner 1 µM)
Method in brief: as §1

NVP-TAE684 + Lapatinib = compound: COc1cc(N2CCC(N3CCN(C)CC3)CC2)ccc1Nc1ncc(Cl)c(Nc2ccccc2S(=O)(=O)C(C)C)n1 [NVP-TAE684] + CS(=O)(=O)CCNCc1ccc(-c2ccc3ncnc(Nc4ccc(OCc5cccc(F)c5)c(Cl)c4)c3c2)o1 [Lapatinib] (partner 2 µM)
Method in brief: as §1

Vandetanib + Phenformin = compound: COc1cc2/c(=N/c3ccc(Br)cc3F)nc[nH]c2cc1OCC1CCN(C)CC1 [Vandetanib] + N=C(N)NC(=N)NCCc1ccccc1 [Phenformin] (partner 250 µM)
Method in brief: as §1

Cell Line | relative viability ([1]; first compound 0.005 µM) | relative viability ([1]; first compound 0.01581 µM) | relative viability ([1]; first compound 0.05 µM) | relative viability ([1]; first compound 0.1581 µM) | relative viability ([1]; first compound 0.5 µM) | relative viability ([2]; first compound 0.005 µM) | relative viability ([2]; first compound 0.05 µM) | relative viability ([2]; first compound 0.1581 µM) | relative viability ([2]; first compound 0.5 µM) | relative viability (NVP-TAE684 + Lapatinib; first compound 0.2 µM) | relative viability (NVP-TAE684 + Lapatinib; first compound 0.6325 µM) | relative viability (NVP-TAE684 + Lapatinib; first compound 2 µM) | relative viability (Vandetanib + Phenformin; first compound 0.02 µM) | relative viability (Vandetanib + Phenformin; first compound 0.06325 µM) | relative viability (Vandetanib + Phenformin; first compound 0.2 µM) | relative viability (Vandetanib + Phenformin; first compound 0.6325 µM) | relative viability (Vandetanib + Phenformin; first compound 2 µM) | relative viability ([2]; first compound 0.01581 µM)
NCI-H1395 | 0.878 | 0.641 | 0.822 | 0.679 | 0.819 | 1.07 | 0.978 | 1.07 | 1.29 | 1.29 | 0.921 | 0.859 | 0.472 | 0.429 | 0.427 | 0.439 | 0.458 | 
NCI-H650 | 0.784 |  | 0.724 | 0.825 | 0.863 | 0.838 | 0.803 | 1.26 | 0.984 |  | 0.776 | 0.706 | 0.464 | 0.448 |  | 0.472 | 0.364 | 0.578
NCI-H1437 | 1.06 | 1.25 | 1.12 | 1.18 | 1.1 | 0.789 | 1.09 | 1.11 | 0.692 | 0.874 | 0.729 | 0.418 | 0.271 | 0.3 | 0.345 | 0.272 | 0.299 | 1.23
NCI-H661 | 0.902 | 0.917 | 0.918 | 0.926 | 0.933 | 0.509 | 0.545 | 0.516 | 0.592 | 0.518 | 0.51 | 0.493 | 0.265 | 0.284 | 0.269 | 0.279 | 0.271 | 0.667
HCC-44 | 0.988 |  | 1.03 | 1.05 | 0.951 | 0.655 | 0.696 | 0.666 | 0.65 | 1.23 | 1.03 | 0.979 | 0.186 | 0.223 | 0.175 | 0.242 | 0.121 | 0.724
NCI-H1355 | 0.618 | 0.832 | 0.765 | 0.763 | 0.568 | 0.764 | 0.847 | 1.05 | 0.714 | 1.18 | 0.855 | 0.636 | 0.436 | 0.461 | 0.431 | 0.448 | 0.406 | 0.849
NCI-H1993 | 0.846 | 0.852 | 0.821 | 0.834 | 0.738 | 0.861 | 0.749 | 0.749 | 0.681 |  | 0.77 | 0.7 | 0.523 | 0.506 | 0.554 | 0.605 | 0.53 | 0.784
NCI-H1734 |  | 0.253 | 0.184 | 0.185 | 0.188 | 0.779 | 0.881 | 0.946 | 0.797 | 1.26 | 0.983 | 0.698 | 0.403 | 0.369 | 0.32 | 0.379 | 0.39 | 0.939
SK-MES-1 | 1.16 | 0.937 | 0.669 | 0.962 | 0.85 | 1.17 | 1.09 | 1.12 | 0.97 | 0.539 | 0.453 | 0.472 | 0.657 | 0.608 | 0.62 | 0.581 | 0.471 | 1.07
COR-L 105 | 0.782 | 0.848 | 0.85 | 0.826 | 0.657 | 0.956 | 1.11 | 1.11 | 0.992 | 0.376 | 0.319 | 0.235 | 0.535 | 0.483 | 0.449 | 0.292 | 0.294 | 1.04
EMC-BAC-2 | 0.766 | 1.32 | 1.11 | 1.28 | 1.03 | 0.568 | 0.785 | 0.925 | 0.728 | 0.856 | 0.805 | 0.586 | 0.51 | 0.506 | 0.339 | 0.485 | 0.463 | 0.877
NCI-H1915 | 0.464 | 0.933 | 0.826 | 0.876 | 0.601 | 1.08 | 1.09 | 1.18 | 1.13 | 1.02 | 1.01 | 0.948 | 0.366 | 0.353 | 0.387 | 0.372 | 0.365 | 1.09
NCI-H358 | 0.248 | 0.465 | 0.296 | 0.475 | 0.185 | 0.533 | 0.654 | 0.722 | 0.654 | 0.397 | 0.328 | 0.256 | 0.295 | 0.275 | 0.265 | 0.217 | 0.26 | 0.739
CAL-12T | 0.371 | 0.361 | 0.422 | 0.435 | 0.235 | 0.76 | 0.671 | 0.991 | 0.839 | 0.666 | 0.471 | 0.305 | 0.536 | 0.539 | 0.446 | 0.411 | 0.242 | 0.781
NCI-H2085 | 0.439 | 0.368 | 0.4 | 0.388 | 0.413 | 0.694 | 0.867 | 1.04 | 0.839 | 0.788 | 0.632 | 0.648 | 0.769 | 0.674 | 0.649 | 0.668 | 0.595 | 0.978
LCLC-97TM1 | 0.748 | 0.896 | 0.795 | 0.947 | 0.685 | 0.218 | 0.175 | 0.191 | 0.225 | 1.51 | 0.547 | 0.287 | 0.457 | 0.42 | 0.441 | 0.393 | 0.422 | 0.186
ABC-1 |  | 0.736 | 0.374 | 0.855 | 0.737 | 0.979 | 1.01 | 0.962 | 0.601 | 1.06 | 1.33 | 0.976 | 0.248 | 0.205 | 0.256 | 0.275 | 0.266 | 0.887
NCI-H596 | 0.627 | 1.02 | 0.875 | 1.07 | 0.764 | 0.921 | 1.05 | 1.15 | 0.951 | 0.915 | 0.949 | 0.893 | 0.917 | 0.623 | 0.698 | 0.747 | 0.698 | 1.12
